Data set [1] has as its target T1, COX-1 (Homo sapiens, UniProt P23219).
T1 construct: Fresh blood from healthy volunteers; from tissue; host or cells: human whole blood (heparinized) from healthy volunteers
The experiment in a line: COX-1 activity in human whole blood (TXB2, calcium ionophore A23187). The class given is cell-based. Particulars: for inhibition at 100 µM: read-out: COX-1 inhibition at 100 μM, at 100 μM; for IC50: 1 h at 37° C., TXB2 by ELISA. A general note: An ELISA detects its analyte on a solid surface through an enzyme-linked reagent.
Method: (§1) COX-1 and COX-2 Activities in Human Whole Blood
For the COX-1 activity determination, 500:1 aliquots of blood were incubated with either 5:1 vehicle (dimethylsulphoxide) or 5:1 of a test compound for 1 h at 37° C. Calcium ionophore A23187 (25:M) was added 20 min before stopping the incubation. Plasma was separated by centrifugation (10 min at 13000 rpm) and kept at −30° C. until TXB2 levels were measured using an enzyme immunoassay kit (ELISA).
The effect of the compounds was evaluated by incubating each compound at five to six different concentrations with triplicate determinations. IC50 values were obtained by non-linear regression using InPlot, GraphPad software on an IBM computer.

Data set [2] has as its target T2, COX-2 (Homo sapiens, UniProt P35354).
T2 construct: incubated in the presence of LPS (10:g/ml) for 24 h at 37° C. in order to induce the COX-2 expression; from tissue; host or cells: human whole blood (heparinized) from healthy volunteers, LPS-stimulated for 24 h
T2 sequence (P35354 18-604): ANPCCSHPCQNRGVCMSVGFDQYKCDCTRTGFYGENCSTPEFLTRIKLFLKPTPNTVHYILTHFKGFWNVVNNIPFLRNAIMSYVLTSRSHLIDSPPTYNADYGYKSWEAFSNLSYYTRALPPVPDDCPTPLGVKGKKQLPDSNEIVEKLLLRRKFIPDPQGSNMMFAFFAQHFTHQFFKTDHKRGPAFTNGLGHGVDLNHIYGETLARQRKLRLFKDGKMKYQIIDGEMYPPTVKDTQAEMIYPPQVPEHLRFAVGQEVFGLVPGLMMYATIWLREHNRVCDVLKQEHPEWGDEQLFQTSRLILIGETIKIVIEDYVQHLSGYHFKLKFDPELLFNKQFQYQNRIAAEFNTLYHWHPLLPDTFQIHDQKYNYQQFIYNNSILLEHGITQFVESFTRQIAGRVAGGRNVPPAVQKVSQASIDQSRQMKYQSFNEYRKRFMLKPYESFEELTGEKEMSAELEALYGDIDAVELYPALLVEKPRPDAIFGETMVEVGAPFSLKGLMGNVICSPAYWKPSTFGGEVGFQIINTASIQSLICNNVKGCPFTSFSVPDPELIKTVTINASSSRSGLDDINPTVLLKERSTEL
The experiment in a line: COX-2 activity in human whole blood (PGE2, LPS-induced). It counts as cell-based. Conditions: for IC50: LPS 24 h at 37° C., PGE2 by ELISA; for Ratio COX-1/COX-2: ratio of COX-1/COX-2 IC50 values.
Method: as §1
Plasma was separated by centrifugation (10 min at 13000 rpm) and kept at −30° C. until PGE2 levels were measured using an enzyme immunoassay kit (ELISA). […] IC50 values were obtained by non-linear regression using InPlot, GraphPad software on an IBM computer.

In general, inhibition refers to the drop in the measured response relative to a control, in per cent. For orientation: IC50 means the concentration needed to halve the response being measured. For orientation: melting point means the temperature, or range, at which the solid turns liquid.

Structures are written as SMILES. Some results are limits rather than exact numbers.

T1 sequence (P23219 24-599): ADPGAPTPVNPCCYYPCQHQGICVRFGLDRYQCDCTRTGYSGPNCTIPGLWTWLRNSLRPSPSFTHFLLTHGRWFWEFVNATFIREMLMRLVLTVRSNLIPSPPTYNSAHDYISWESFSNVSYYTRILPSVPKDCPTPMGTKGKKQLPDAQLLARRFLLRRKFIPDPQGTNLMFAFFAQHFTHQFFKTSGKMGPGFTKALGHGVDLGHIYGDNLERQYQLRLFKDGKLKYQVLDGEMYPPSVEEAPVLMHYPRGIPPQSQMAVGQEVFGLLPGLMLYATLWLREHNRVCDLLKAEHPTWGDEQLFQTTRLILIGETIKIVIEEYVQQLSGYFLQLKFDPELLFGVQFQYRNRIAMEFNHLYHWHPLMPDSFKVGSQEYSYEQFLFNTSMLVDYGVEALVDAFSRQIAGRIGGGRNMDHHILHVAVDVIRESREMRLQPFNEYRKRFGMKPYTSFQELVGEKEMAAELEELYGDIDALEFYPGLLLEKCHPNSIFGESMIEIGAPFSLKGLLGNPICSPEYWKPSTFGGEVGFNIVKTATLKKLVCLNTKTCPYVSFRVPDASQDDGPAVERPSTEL

In turn, `CC(=O)OCc1cc(=O)c(Oc2ccc(Cl)cc2)c(-c2ccc(S(C)(=O)=O)cc2)o1` [Example 31, Acetic acid [5-(4-chlorophenoxy)-6-(4-methanesulfonylphenyl)-4-oxo-4H-pyran-2-yl]methyl ester] displayed a melting point of 115 °C. In addition, the inhibition at 100 µM in data set [1] amounted to 17%. Also, in data set [2], inhibition was half-maximal at 1100 nM (IC50) and the “Ratio COX-1/COX-2” value is over 90.
As for `Cc1oc(-c2ccc(S(C)(=O)=O)cc2)c(Oc2ccc(Cl)cc2)c(=O)c1Br` [Example 18, 3-Bromo-5-(4-chlorophenoxy)-6-(4-methanesulfonylphenyl)-2-methyl pyran-4-one], the melting point stood at 251 °C. In addition, the IC50 in data set [1] stood at 76700 nM. Further, in data set [2], the IC50 was determined as 820 nM and the “Ratio COX-1/COX-2” value came out at 93.
In the same order, the values of `CS(=O)(=O)c1ccc(-c2oc(C(=O)O)cc(=O)c2Oc2ccc(F)cc2F)cc1` [Example 32, 5-(2,4-Difluorophenoxy)-6-(4-methanesulfonylphenyl)-4-oxo-4H-pyran-2-carboxylic acid] are 245 °C, 450000 nM, 420 nM and 1070.
For `CS(=O)(=O)c1ccc(-c2oc(CO)cc(=O)c2Oc2ccc(F)cc2)cc1` [Example 23, 3-(4-Fluorophenoxy)-6-hydroxymethyl-2-(4-methanesulfonylphenyl)pyran-4-one], the melting point came to 206 °C. Besides, in data set [1], the inhibition at 100 µM was found to be 2%. Also, in data set [2], the IC50 stood at 1440 nM and the “Ratio COX-1/COX-2” value is over 70.
In turn, `COCc1cc(=O)c(Oc2ccc(Cl)cc2)c(-c2ccc(S(C)(=O)=O)cc2)o1` [Example 28, 3-(4-Chlorophenoxy)-2-(4-methanesulfonylphenyl)-6-methoxymethylpyran-4-one] registered a melting point of 156 °C. In addition, in data set [1], the IC50 came out at 91900 nM. For the same compound, in data set [2], the IC50 was 440 nM and the “Ratio COX-1/COX-2” value turned out to be 209.
In the same order, the values of `COCc1cc(=O)c(Oc2ccc(F)cc2F)c(-c2ccc(S(C)(=O)=O)cc2)o1` [Example 26, 3-(2,4-Difluorophenoxy)-2-(4-methanesulfonylphenyl)-6-methoxymethyl pyran-4-one] are 124 °C, 21100 nM, 170 nM and 124.
`CC(=O)OCc1cc(=O)c(Oc2ccc(F)cc2)c(-c2ccc(S(C)(=O)=O)cc2)o1` [Example 30, Acetic acid [5-(4-fluorophenoxy)-6-(4-methanesulfonylphenyl)-4-oxo-4H-pyran-2-yl]methyl ester] returned a melting point of 180 °C. Besides, in data set [1], the IC50 is 50300 nM. In addition, in data set [2], the 50% inhibitory concentration (IC50) was determined as 140 nM and the “Ratio COX-1/COX-2” value stood at 359.

(Values after patent publication US7354936B2, “2-phenylpyran-4-one derivatives” (Almirall AG, priority 2000, dated 2008).)
